The text below walks through data of patent publication US10266497B2 (ABIDE THERAPEUTICS, INC., priority 2017, dated 2019).

Each structure is given as a SMILES string. pIC50: −log10 of the molar value.

Assay [1] concerns the target T1, MAGL (Mus musculus, UniProt O35678).
T1 sequence (O35678 1-303): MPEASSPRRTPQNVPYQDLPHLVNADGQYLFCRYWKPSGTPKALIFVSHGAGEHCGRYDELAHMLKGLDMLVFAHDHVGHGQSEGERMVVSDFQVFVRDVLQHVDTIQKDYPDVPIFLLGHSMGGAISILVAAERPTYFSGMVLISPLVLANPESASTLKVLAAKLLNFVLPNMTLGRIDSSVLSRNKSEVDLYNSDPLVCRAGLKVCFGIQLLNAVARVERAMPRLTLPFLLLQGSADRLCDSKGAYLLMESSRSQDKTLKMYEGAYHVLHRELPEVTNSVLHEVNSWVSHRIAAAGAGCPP
Nature of the assay: Mouse brain proteomes from inhibitor treated mice (oral gavage, sacrificed 4 h after administration). The assay is classed as in vivo. Details: mouse brain membrane fraction for mouse assays; from tissue; host or cells: mouse brain (membrane fraction in vitro; brain proteomes of treated C57Bl/6J mice in vivo). The following applies: 5 mg/kg oral gavage, brain proteome 4 h after administration, read-out: MAGL % inh. 5 mg/kg (mouse).

The target of assay [2] is T2, FAAH (Homo sapiens, UniProt O00519).
T2 sequence (O00519 1-579): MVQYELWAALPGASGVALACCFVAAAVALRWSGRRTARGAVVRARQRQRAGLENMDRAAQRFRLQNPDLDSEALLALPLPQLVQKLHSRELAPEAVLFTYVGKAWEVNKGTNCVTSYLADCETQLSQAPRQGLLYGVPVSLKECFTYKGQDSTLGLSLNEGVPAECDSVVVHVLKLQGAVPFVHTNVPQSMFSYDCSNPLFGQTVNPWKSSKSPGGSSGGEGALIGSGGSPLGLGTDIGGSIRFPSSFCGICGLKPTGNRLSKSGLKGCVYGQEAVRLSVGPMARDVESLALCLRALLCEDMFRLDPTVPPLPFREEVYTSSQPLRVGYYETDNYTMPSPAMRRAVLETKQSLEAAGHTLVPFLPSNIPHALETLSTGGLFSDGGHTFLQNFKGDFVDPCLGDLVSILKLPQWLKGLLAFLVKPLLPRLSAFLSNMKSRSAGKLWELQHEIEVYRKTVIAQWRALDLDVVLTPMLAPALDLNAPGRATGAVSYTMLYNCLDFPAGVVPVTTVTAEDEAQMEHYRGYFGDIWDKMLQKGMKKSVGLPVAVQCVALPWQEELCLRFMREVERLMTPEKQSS
Briefly: In vitro competitive activity-based protein profiling, FAAH, human. The settings on record: for inhibition at 1 µM: read-out: FAAH % inh. 1 μM (human).

Assay [3] addresses T3, FAAH (Mus musculus, UniProt O08914).
T3 sequence (O08914 1-579): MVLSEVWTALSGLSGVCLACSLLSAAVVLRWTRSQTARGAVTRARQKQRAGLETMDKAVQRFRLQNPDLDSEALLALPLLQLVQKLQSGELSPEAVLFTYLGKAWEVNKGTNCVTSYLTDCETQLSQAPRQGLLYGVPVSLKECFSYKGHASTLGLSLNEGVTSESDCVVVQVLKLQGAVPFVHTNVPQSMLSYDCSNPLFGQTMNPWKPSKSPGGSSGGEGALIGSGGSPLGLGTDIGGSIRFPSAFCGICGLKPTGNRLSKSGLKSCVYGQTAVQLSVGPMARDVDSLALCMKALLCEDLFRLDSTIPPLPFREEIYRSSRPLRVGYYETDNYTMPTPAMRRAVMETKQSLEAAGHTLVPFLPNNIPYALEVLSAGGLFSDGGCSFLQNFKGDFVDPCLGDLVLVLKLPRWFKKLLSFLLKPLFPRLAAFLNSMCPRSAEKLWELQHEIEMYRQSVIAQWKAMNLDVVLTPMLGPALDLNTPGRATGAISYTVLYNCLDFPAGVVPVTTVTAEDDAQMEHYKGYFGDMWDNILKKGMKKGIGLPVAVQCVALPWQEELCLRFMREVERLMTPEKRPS
Briefly: Mouse brain proteomes from inhibitor treated mice (oral gavage, sacrificed 4 h after administration), FAAH. The assay is classed as in vivo. The following applies: 5 mg/kg oral gavage, brain proteome 4 h after administration, read-out: FAAH % inh. 5 mg/kg (mouse). Also on record: mouse brain membrane fraction for mouse assays; from tissue; host or cells: mouse brain (membrane fraction in vitro; brain proteomes of treated C57Bl/6J mice in vivo).

The target of assay [4] is T1, MAGL. Nature of the assay: In vitro competitive activity-based protein profiling, MAGL, mouse. The settings on record: read-out: MAGL % inh. 1 μM (mouse).
In assay [5] the target is T4, MAGL (Homo sapiens, UniProt Q99685).
T4 sequence (Q99685 1-303): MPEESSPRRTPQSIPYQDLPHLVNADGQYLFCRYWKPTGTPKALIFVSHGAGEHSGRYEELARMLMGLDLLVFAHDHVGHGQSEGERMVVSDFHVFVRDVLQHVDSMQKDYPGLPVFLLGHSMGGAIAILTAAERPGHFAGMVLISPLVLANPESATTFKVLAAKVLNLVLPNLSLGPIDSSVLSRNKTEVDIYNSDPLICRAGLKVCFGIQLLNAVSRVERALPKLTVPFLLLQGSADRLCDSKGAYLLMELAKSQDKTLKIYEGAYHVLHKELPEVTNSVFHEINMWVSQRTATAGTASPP
Nature of the assay: In vitro competitive activity-based protein profiling, MAGL, human. The following applies: for inhibition at 1 µM: read-out: MAGL % inh. 1 μM (human).

In assay [6] the target is T3, FAAH. Briefly: In vitro competitive activity-based protein profiling, FAAH, mouse. The settings on record: read-out: FAAH % inh. 1 μM (mouse).

Turning to `O=C(O)c1ccn(C(=O)N2CC3CN(Cc4ccc(N5CCCC5)cc4C(F)(F)F)CC3C2)n1` (stereo not shown) [Example 123, 1-(5-(4-(pyrrolidin-1-yl)-2-(trifluoromethyl)benzyl)octahydro-pyrrolo[3,4-c]pyrrole-2-carbonyl)-1H-pyrazole-3-carboxylic acid], the inhibition at 5 mg/kg in assay [1] and in assay [3] was 0 to 25% each time. Besides, the inhibition at 1 µM was 50 to 75% in assay [2], more than 75% in assay [4], more than 75% in assay [5] and more than 75% in assay [6].
For the compound `CC1CCC(C)N1c1cc(C(F)(F)F)ccc1CN1CCN(C(=O)n2ccc(C(=O)O)n2)CC1` (stereo not shown) [Example 114, 1-(4-(2-(2,5-dimethylpyrrolidin-1-yl)-4-(trifluoromethyl)benzyl)piperazine-1-carbonyl)-1H-pyrazole-3-carboxylic acid], the inhibition at 5 mg/kg in assay [1] and in assay [3] was 0 to 25% throughout. Besides, the inhibition at 1 µM in assay [2] was 0 to 25%; in assay [4], more than 75%; in assay [5], more than 75%; in assay [6], 0 to 25%.
Broadly, the pIC50 is the negative decadic logarithm of the IC50, by convention in mol/L. In the case of `O=C(O)c1nn(C(=O)N2CCC3(CCN(Cc4cc(Cl)ccc4C(F)(F)F)C3)CC2)cc1Cl` [Example 133, 4-chloro-1-(2-(5-chloro-2-(trifluoromethyl)benzyl)-2,8-diazaspiro[4.5]decane-8-carbonyl)-1H-pyrazole-3-carboxylic acid], the inhibition at 5 mg/kg in assay [1] and in assay [3] was 0 to 25% in each case. In assay [2], this compound gave a pIC50 of 6.00 to 7.00. The inhibition at 1 µM in assay [2], in assay [4], in assay [5] and in assay [6] was more than 75% throughout.
With `O=C(O)c1ccn(C(=O)N2CCC3(CCCN3Cc3cc(N4CCCC4)cc(C(F)(F)F)c3)CC2)n1` [Example 88, 1-(1-(3-(pyrrolidin-1-yl)-5-(trifluoromethyl)benzyl)-1,8-diazaspiro[4.5]decane-8-carbonyl)-1 1H-pyrazole-3-carboxylic acid], the inhibition at 5 mg/kg in assay [1] and in assay [3] was 0 to 25% each time. Moreover, the inhibition at 1 µM is 0 to 25% in assay [2], more than 75% in assay [4], more than 75% in assay [5] and 0 to 25% in assay [6].
`CN(Cc1ccc(C(F)(F)F)cc1N1C2CCC1COC2)C1(C)CCN(C(=O)n2ccc(C(=O)O)n2)CC1` [Example 207, 1-(4-((2-(3-oxa-8-azabicyclo[3.2.1]octan-8-yl)-4-(trifluoromethyl)benzyl)(methyl)amino)-4-methyl-piperidine-1-carbonyl)-1H-pyrazole-3-carboxylic acid]: the inhibition at 5 mg/kg in assay [1] and in assay [3] was 0 to 25% in each case. The inhibition at 1 µM was 0 to 25% in assay [2], more than 75% in assay [4], more than 75% in assay [5] and 0 to 25% in assay [6].
As for `O=C(O)c1ccn(C(=O)N2CCC3(CCCN3Cc3ccc(C(F)(F)F)cc3N3CCCC3)CC2)n1` [Example 93, 1-(1-(2-(pyrrolidin-1-yl)-4-(trifluoromethyl)benzyl)-1,8-diazaspiro[4.5]decane-8-carbonyl)-1H-pyrazole-3-carboxylic acid], the inhibition at 5 mg/kg in assay [1] and in assay [3] was 0 to 25% throughout. In assay [2], this compound had a negative logarithm of the IC50 (pIC50) of 5.00 to 6.00. The inhibition at 1 µM is 0 to 25% in assay [2], more than 75% in assay [4], more than 75% in assay [5] and 0 to 25% in assay [6].
On to `O=C(O)c1ccn(C(=O)N2CCC3(CCCN3Cc3cc4ccc(C(F)(F)F)cc4s3)CC2)n1` [Example 185, 1-(1-((6-(trifluoromethyl)benzo[b]thiophen-2-yl)methyl)-1,8-diazaspiro[4.5]decane-8-carbonyl)-1H-pyrazole-3-carboxylic acid], for which the inhibition at 5 mg/kg in assay [1] and in assay [3] was 0 to 25% each time. The inhibition at 1 µM in assay [2] was 0 to 25%; in assay [4] it was more than 75%; in assay [5] it was more than 75%; in assay [6] it was 0 to 25%.
Consider `O=C(O)c1ccn(C(=O)N2C[C@H]3C[C@H](OCc4cccc(Oc5ccc(Cl)cc5)c4)C[C@H]3C2)n1` [Example 158, 1-(trans-5-((3-(4-chlorophenoxy)benzyl)oxy)octa-hydrocyclopenta[c]pyrrole-2-carbonyl)-1H-pyrazole-3-carboxylic acid], for which the inhibition at 5 mg/kg in assay [1] and in assay [3] was 0 to 25% each time. Also, the inhibition at 1 µM in assay [2], in assay [4], in assay [5] and in assay [6] was more than 75% in each case.
Turning to `NC(=O)C1CCN(c2cc(C(F)(F)F)ccc2CN2CCN(C(=O)n3ccc(C(=O)O)n3)CC2)CC1` [Example 113, 1-(4-(2-(4-carbamoylpiperidin-1-yl)-4-(trifluoromethyl)benzyl)piperazine-1-carbonyl)-1H-pyrazole-3-carboxylic acid], the inhibition at 5 mg/kg in assay [1] and in assay [3] was 0 to 25% in each case. Besides, the inhibition at 1 µM in assay [2] is 0 to 25%; in assay [4], more than 75%; in assay [5], more than 75%; in assay [6] it was 0 to 25%.
Take `O=C(O)c1ccn(C(=O)N2CCC3(CCN(Cc4cccc(Oc5ccc(Cl)cc5)c4)C3)CC2)n1` [Example 210, 1-(2-(3-(4-chlorophenoxy)benzyl)-2,8-diazaspiro[4.5]decane-8-carbonyl)-1H-pyrazole-3-carboxylic acid]: the inhibition at 5 mg/kg in assay [1] and in assay [3] was 0 to 25% each time. Further, the values for the pIC50 in assay [2] and in assay [5] were 5.00 to 6.00 and 6.00 to 7.00, respectively. Moreover, the inhibition at 1 µM in assay [2], in assay [4], in assay [5] and in assay [6] was more than 75% each time.
Turning to `O=C(O)c1ccn(C(=O)N2CCN(Cc3cccc(Cl)c3N3CC4COCC4C3)CC2)n1` (stereo not shown) [Example 211, 1-(4-(3-chloro-2-(tetrahydro-1H-furo[3,4-c]pyrrol-5(3H)-yl)benzyl)piperazine-1-carbonyl)-1H-pyrazole-3-carboxylic acid], the inhibition at 5 mg/kg in assay [1] and in assay [3] was 0 to 25% in each case. Besides, the inhibition at 1 µM was 0 to 25% in assay [2], more than 75% in assay [4], more than 75% in assay [5] and 0 to 25% in assay [6].
